Data set [1] deals with T1, ABCG2 (Homo sapiens, UniProt Q9UNQ0).
T1 sequence (Q9UNQ0 whole entry): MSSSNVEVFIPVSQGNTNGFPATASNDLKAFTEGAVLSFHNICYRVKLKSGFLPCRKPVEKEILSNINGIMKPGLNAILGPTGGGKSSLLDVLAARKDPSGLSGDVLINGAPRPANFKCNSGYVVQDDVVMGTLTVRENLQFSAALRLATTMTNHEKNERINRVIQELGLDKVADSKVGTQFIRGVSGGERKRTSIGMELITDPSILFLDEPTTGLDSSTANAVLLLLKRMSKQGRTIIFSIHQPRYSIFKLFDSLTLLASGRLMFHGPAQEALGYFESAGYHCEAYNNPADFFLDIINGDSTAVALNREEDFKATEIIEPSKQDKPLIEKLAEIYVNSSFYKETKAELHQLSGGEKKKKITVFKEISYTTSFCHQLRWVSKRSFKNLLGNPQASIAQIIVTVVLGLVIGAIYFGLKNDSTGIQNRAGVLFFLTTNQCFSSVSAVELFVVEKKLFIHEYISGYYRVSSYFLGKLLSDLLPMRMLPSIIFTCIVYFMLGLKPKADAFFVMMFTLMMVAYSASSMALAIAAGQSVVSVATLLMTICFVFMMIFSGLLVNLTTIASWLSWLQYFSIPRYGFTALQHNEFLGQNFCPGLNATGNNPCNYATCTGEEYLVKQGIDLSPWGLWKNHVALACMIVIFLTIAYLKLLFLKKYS
Description: Inhibition of ABCG2-mediated mitoxantrone efflux expressed in HEK293 cells at 2 uM after 48 hrs by flow cytometric analysis. The note with it: HEK293 cells expressing ABCG2, probe mitoxantrone. Format: cell-based.

Data set [2] concerns the target T1, ABCG2. Description: Inhibition of ABCG2-mediated mitoxantrone efflux expressed in HEK293 cells at 10 uM after 48 hrs by flow cytometric analysis. The data set is classed as cell-based. To be noted: HEK293 cells expressing ABCG2, probe mitoxantrone.
In a further data set the test system is HEK293. Description: Cytotoxicity against human HEK293 cells transfected with ABCG2 up to 100 uM after 72 hrs by MTT assay. Format: ADME, cell-based. To be noted: hek293, 72 h.
Data set [3] can be described thus: Cytotoxicity against human HEK293 cells transfected with ABCG2 after 72 hrs by MTT assay. Format: ADME, cell-based. The note with it: read-out: IG50.
Data set [4] concerns ABCG2. Description: Therapeutic index, ratio of IG50 for HEK293 cells to IC50 for ABCG2. Format: cell-based. The note with it: human, read-out: TI.
For data set [5], the target named is ATP-dependent translocase ABCB1 (Homo sapiens, UniProt P08183). Nature of the data set: Inhibition of ABCB1-mediated mitoxantrone efflux expressed in HEK293 cells at 10 uM after 48 hrs by flow cytometric analysis. To be noted: hek293, 48 h. Format: cell-based.
Sequence of ATP-dependent translocase ABCB1 (P08183 whole entry): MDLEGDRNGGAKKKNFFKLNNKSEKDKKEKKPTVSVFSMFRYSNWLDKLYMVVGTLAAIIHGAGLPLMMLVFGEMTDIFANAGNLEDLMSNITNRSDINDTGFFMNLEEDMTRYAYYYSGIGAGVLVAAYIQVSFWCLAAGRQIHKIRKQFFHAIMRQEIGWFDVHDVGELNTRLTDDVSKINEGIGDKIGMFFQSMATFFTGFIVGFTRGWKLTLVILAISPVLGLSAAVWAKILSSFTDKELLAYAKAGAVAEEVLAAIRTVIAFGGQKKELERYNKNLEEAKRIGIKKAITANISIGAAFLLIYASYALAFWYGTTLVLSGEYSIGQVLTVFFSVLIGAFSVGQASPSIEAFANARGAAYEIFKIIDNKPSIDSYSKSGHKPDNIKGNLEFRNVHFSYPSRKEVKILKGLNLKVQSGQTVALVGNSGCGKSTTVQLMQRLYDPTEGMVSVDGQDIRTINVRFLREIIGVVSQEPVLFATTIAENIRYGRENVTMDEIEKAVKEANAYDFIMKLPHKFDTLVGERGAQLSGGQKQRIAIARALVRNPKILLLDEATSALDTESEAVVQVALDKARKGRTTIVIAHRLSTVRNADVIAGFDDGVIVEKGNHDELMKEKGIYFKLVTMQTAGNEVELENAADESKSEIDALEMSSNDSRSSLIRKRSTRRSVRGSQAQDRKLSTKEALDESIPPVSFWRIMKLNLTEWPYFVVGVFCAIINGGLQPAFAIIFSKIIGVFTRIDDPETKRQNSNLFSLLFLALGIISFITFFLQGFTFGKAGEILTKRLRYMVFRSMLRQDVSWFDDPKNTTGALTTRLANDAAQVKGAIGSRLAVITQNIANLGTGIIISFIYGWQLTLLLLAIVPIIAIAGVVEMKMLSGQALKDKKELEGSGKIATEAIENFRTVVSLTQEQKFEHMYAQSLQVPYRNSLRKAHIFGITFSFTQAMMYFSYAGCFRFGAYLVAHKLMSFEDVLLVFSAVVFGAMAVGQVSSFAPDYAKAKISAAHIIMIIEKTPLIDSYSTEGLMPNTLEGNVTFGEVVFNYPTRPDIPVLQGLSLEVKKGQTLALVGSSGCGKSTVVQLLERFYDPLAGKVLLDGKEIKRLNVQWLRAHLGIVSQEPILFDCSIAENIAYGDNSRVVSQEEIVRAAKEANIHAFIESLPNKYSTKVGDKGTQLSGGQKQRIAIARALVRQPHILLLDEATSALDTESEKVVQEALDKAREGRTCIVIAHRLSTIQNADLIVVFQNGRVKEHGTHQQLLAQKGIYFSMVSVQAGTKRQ
Data set [6] deals with T2, Broad substrate specificity ATP-binding cassette transporter ABCG2 (Homo sapiens, UniProt Q9UNQ0).
T2 sequence (Q9UNQ0 whole entry): T1 sequence (Q9UNQ0 whole entry)
Description: Inhibition of ABCG2-mediated mitoxantrone efflux expressed in HEK293 cells after 48 hrs by flow cytometric analysis. Format: cell-based.

Data set [7] deals with Multidrug resistance-associated protein 1 (Homo sapiens, UniProt P33527). Description: Inhibition of ABCC1-mediated calcein transport expressed in human HEK293 cells at 10 uM after 48 hrs by flow cytometric analysis. The data set is classed as cell-based. The note with it: hek293, 48 h.
Sequence of Multidrug resistance-associated protein 1 (P33527 whole entry): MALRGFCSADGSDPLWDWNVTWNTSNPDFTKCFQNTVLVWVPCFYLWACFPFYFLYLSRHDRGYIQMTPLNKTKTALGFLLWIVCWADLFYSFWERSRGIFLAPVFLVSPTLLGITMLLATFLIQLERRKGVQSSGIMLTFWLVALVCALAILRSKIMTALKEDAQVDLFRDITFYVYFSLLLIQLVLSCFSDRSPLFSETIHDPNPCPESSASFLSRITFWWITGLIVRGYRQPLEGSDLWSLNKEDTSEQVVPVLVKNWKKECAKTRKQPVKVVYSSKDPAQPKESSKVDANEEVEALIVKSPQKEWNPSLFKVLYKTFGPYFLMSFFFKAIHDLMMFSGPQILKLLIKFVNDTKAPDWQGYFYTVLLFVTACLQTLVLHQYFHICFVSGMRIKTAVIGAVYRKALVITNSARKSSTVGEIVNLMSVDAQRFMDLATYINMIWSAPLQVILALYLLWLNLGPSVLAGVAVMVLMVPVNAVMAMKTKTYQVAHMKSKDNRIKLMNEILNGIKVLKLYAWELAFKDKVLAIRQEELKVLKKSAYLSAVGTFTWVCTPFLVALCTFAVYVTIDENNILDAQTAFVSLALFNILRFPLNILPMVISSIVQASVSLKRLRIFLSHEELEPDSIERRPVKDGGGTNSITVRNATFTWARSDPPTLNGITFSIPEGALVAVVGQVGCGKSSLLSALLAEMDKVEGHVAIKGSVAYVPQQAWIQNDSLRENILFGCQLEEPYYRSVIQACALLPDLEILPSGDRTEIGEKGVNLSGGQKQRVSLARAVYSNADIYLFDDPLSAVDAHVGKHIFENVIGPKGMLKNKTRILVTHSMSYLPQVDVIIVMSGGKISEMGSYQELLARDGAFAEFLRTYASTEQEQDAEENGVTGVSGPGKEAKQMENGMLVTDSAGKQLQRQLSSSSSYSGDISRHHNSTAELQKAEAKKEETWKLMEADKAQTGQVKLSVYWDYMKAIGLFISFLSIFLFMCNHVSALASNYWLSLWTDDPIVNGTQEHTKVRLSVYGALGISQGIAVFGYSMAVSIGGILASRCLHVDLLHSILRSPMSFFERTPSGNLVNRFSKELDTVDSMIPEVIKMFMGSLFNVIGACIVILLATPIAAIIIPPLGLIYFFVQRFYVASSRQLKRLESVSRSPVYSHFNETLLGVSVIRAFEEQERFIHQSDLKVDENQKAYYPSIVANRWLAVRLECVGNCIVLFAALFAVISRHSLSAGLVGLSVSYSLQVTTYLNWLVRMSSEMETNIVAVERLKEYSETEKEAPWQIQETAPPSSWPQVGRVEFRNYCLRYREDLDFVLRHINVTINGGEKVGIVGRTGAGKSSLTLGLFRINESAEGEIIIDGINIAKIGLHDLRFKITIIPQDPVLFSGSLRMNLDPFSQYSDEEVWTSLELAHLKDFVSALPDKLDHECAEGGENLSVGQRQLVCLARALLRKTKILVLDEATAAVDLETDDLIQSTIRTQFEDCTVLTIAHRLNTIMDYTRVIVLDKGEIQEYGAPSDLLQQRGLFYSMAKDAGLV
The target in data set [8] is T1, ABCG2. Nature of the data set: Inhibition of ABCG2-mediated mitoxantrone efflux expressed in HEK293 cells at 5 uM after 48 hrs by flow cytometric analysis. Format: cell-based. To be noted: HEK293 cells expressing ABCG2, probe mitoxantrone.

The values that follow come from ChEMBL document CHEMBL2046378, “Investigation of chalcones as selective inhibitors of the breast cancer resistance protein: critical role of methoxylation in both inhibition potency and cytotoxicity” (J Med Chem, 2012).

SMILES strings stand for the structures.

`COc1ccc(C(=O)/C=C/c2cn(C)c3ccccc23)cc1`: at ABCG2 [1], the inhibition at 48 h, 2 µM is 55.5%. For the same compound, the inhibition at 48 h, 10 µM on ABCG2 [2] worked out at 89%.

For `COc1ccc(/C=C/C(=O)c2cn(C)c3ccccc23)c(OC)c1`, the inhibition at 48 h, 2 µM at ABCG2 [1] turned out to be 83.8%. For the same compound, at ABCG2 [2], the inhibition at 48 h, 10 µM is 108%.

As for `COc1cccc(OC)c1/C=C/C(=O)c1cn(C)c2ccccc12`, the Activity result in the data set with HEK293 is on record as “Non-toxic”. Further, the GI50 at 72 h in [3] came to 50 µM. In addition, the inhibition at 48 h, 2 µM against ABCG2 [1] came to 104%. Moreover, in the data set on ABCG2 [4], the selectivity ratio turned out to be 185. For the same compound, the “inhibition (INH)” value in [5] and in [7] was “Not Active” throughout. Moreover, on ABCG2 [2], the inhibition at 48 h, 10 µM turned out to be 113%. Besides, the IC50 in [6] is 0.27 µM.

Consider `COc1cc(OC)c(/C=C/C(=O)c2cn(C)c3ccccc23)c(OC)c1`, for which the Activity result in the data set with HEK293 is “Non-toxic”. Moreover, in [3], the GI50 at 72 h was 4 µM. Besides, at ABCG2 [1], the inhibition at 48 h, 2 µM was found to be 93.8%. Moreover, in the data set on ABCG2 [4], the selectivity ratio was 9. Also, the “inhibition (INH)” value in [5] and in [7] was “Not Active” throughout. The inhibition at 48 h, 10 µM against ABCG2 [2] turned out to be 109%. In data set [6], this compound came in with an IC50 of 0.45 µM.

For `COc1cc(/C=C/C(=O)c2cn(C)c3ccccc23)cc(OC)c1OC`, at ABCG2 [1], the inhibition at 48 h, 2 µM turned out to be 49.3%. Moreover, the inhibition at 48 h, 10 µM against ABCG2 [2] was found to be 70%.

In the case of `COc1cc(OC)c(/C=C/C(=O)c2cn(C)c3ccc(OC)cc23)c(OC)c1`, the Activity result in the data set with HEK293 is “Non-toxic”. Also, the GI50 at 72 h in [3] is 1 µM. Also, at ABCG2 [1], the inhibition at 48 h, 2 µM was found to be 89.1%. For the same compound, the selectivity ratio with ABCG2 [4] was found to be 3. Besides, the “inhibition (INH)” value in data set [5] and in data set [7] was “Not Active” in each case. Further, at ABCG2 [2], the inhibition at 48 h, 10 µM stood at 111%. Besides, in [6], the IC50 is 0.35 µM.

Consider `Cn1cc(/C=C/C(=O)c2cn(C)c3ccccc23)c2ccccc21`, for which the inhibition at 48 h, 2 µM against ABCG2 [1] was 52.1%. In addition, on ABCG2 [2], the inhibition at 48 h, 10 µM is 98.8%.

For `COc1ccc(C(=O)/C=C/c2cn(C)c3ccccc23)c(OC)c1`, the inhibition at 48 h, 2 µM against ABCG2 [1] is 88.2%. Also, the inhibition at 48 h, 10 µM on ABCG2 [2] stood at 125%.

With `COc1cc(OC)c(C(=O)/C=C/c2cn(C)c3ccccc23)c(OC)c1`, on ABCG2 [1], the inhibition at 48 h, 2 µM was determined as 3.7%. The inhibition at 48 h, 10 µM at ABCG2 [2] is 30%.

On to `COc1cccc(OC)c1C(=O)/C=C/c1cn(C)c2ccccc12`, for which, at ABCG2 [1], the inhibition at 48 h, 2 µM stood at 2.9%. At ABCG2 [2], the inhibition at 48 h, 10 µM was found to be 17.4%.

In the case of `COc1cc(O)c(C(=O)/C=C/c2c(OC)cccc2OC)c(OC)c1`, in the data set on HEK293, the Activity result was “Non-toxic”. Further, in [3], the GI50 at 72 h amounted to 50 µM. The “inhibition (INH)” value in [5] and in [7] was “Not Active” each time. Also, the IC50 in data set [6] was 0.35 µM.

In the case of `COc1ccc(C(=O)/C=C/c2ccc(OC)c(OC)c2)c(O)c1`, the inhibition at 48 h, 2 µM against ABCG2 [1] turned out to be 71.1%. Moreover, the inhibition at 48 h, 10 µM at ABCG2 [2] amounted to 76.5%.

As to `COc1cc2c(cc1OC)CN(CCc1ccc(NC(=O)c3cccc4c(=O)c5cccc(OC)c5[nH]c34)cc1)CC2`, the inhibition at 48 h, 5 µM at ABCG2 [8] turned out to be 100%.

`COc1cc(/C=C/C(=O)c2c(O)cc(OC)cc2OC)cc(OC)c1`: in the data set with HEK293, the Activity result is “Non-toxic”. For the same compound, in [3], the GI50 at 72 h turned out to be 6 µM. The “inhibition (INH)” value in data set [5] and in data set [7] was “Not Active” in each case. Besides, in data set [6], the half-maximal inhibitory concentration (IC50) worked out at 0.17 µM.

For `COc1cccc(/C=C/C(=O)c2c(O)cc(OC)cc2OC)c1`, in the data set with HEK293, the Activity result is “Non-toxic”. The GI50 at 72 h in [3] was 10 µM. In addition, the “inhibition (INH)” value in data set [5] and in [7] was “Not Active” each time. Further, the 50% inhibitory concentration (IC50) in [6] came out at 0.26 µM.
